Measured values taken from patent US6271342A, “Sugar-modified cytostatics” (Bayer Aktiengesellschaft, priority 1995, dated 2001).
Structures can show the parent of a compound that is named as a salt. Where two headings read alike, the source gives them in different places.

How the values were obtained:
[1] = tested on: B16F10 tumour; assay: In vivo test, survival of mice with transplanted B16F10 tumour; parameters: species or system mouse; conditions: treated daily
Protocol: Mice are inoculated with 5×10^6 B16F10 tumour cells on day 0. The animals in which tumour cells are transplanted develop solid peritoneal tumours and are then treated daily with test substances or with the vehicle control. In the control group, 50% of the animals usually die between day 14 and 20. The test substances are administered in buffer or an organic solvent system comprising 20% methanol and 20% dimethyl sulphoxide in 0.7% sodium chloride solution.
The therapeutic result arises from the prolonging of the survival time of the treated animals. […] A therapeutic index can be estimated from the tolerance and prolonging of the survival time.

[2] = tested on: HT 29; assay: Growth inhibition test (MTT) for cytotoxic properties; assay type: cell-based, human
Summary of the method: (§1)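 SW 480 and HT 29 cells in RPMI 1640 with 10% FCS were seeded at 50,000 cells/ml, grown 1 day at 37 °C, then exposed to compound added in DMSO. MTT (5 mg/ml stock) was applied after day 3 and day 6 for 5 h, and formazan absorbance was read at 540 nm. IC50 values reported.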

[3] = tested on: SW 480; assay: as above; assay type: cell-based, human
Summary of the method: as §1

[4] = Acute toxicity, single administration; assay type: in vivo, nu/nu naked mice; conditions: for acute toxicity detected: dose of 400 mg/kg; for acute toxicity detected / individual dose of the substances which can be tolerated: single administration; for Individual dose tolerated in mg/kg of mouse, i.v.: single administration i.v., aqueous solution; for Individual dose tolerated in mg/kg of mouse, i.p.: single administration i.p., solution in dimethyl sulphoxide
Protocol: Determination of the Acute Toxicity of Glycoconjugates of Batracyline (Single Administration)
The acute toxicity of the batracyline derivatives was determined on nu/nu naked mice.
The substances administered i.v., as aqueous solutions, and the substances administered i.p., as solutions in dimethyl sulphoxide, were injected once in concentrations of up to 400 mg of substance per kg of mouse.
The individual dose tolerated was calculated from the decrease in the weight of the animals up to 21 days after administration and from the number of animals surviving.

[5] = tested on: SW-480; assay: Cleavage kinetics with cells (HPLC); conditions: Table 2a; 37° C.; * = cleavage product is N-[D-alanyl]-batracyline
Protocol: Cleavage Kinetics With Cells
(§2) 2.25 ml of PBS are incubated together with 225 μl of a cell suspension (30 mg/ml) and 25 μl of substrate stock solution (1 mg/ml in 3% dimethyl sulphoxide in PBS) at 37° C. After 1 hour and 24 hours, samples of in each case 1 ml are taken, mixed with 1 ml of ethanol and left to stand at 4° C. for 20 minutes. After centrifugation (5 minutes at 3500 rpm), 100 μl of supernatant are taken for the HPLC analysis.

[6] = tested on: hepatoma; assay: Cleavage kinetics with cells (HPLC); conditions: Table 2a; 37° C.; * = cleavage product is N-[D-alanyl]-batracyline
Protocol: Cleavage Kinetics With Cells
as §2

[7] = tested on: hepatoma
Protocol: Cleavage Kinetics With Cells
as §2

[8] = tested on: SW-480
Protocol: Cleavage Kinetics With Cells
as §2

[9] = Cleavage kinetics with human blood (HPLC); assay type: in vitro ADME; conditions: 37° C.
Text: In Vitro Investigation of the Cleavability of the Glycoconjugates
Cleavage Kinetics With Human Blood

[10] = tested on: B 16 F 10; assay: Growth inhibition test (MTT) for cytotoxic properties; assay type: cell-based, mouse; conditions: Table 1b
Protocol: Growth Inhibition Test for Determination of the Cytotoxic Properties of Glycoconjugates of Batracyline and of Quinolone-a
The human colon cell lines SW 480 and HT 29 (ATCC no. CCL 228 and HBT-38) and the mouse melanoma cell line B 16 F 10 were cultured in Roux dishes in RPMI 1640 medium with addition of 10% FCS. The cultures were then trypsinized and taken up in RPMI plus 10% FCS to a cell count of 50,000 cells/ml. 100 μl of cell suspension/well were introduced into a 96 microwell plate and incubated for 1 day at 37° C. in a CO2 incubating cabinet. A further 100 μl of RPMI medium and 1 μl of dimethyl sulphoxide with the test substances were then added. The growth was checked after day 3 and day 6. 40 μl of MTT solution (3-(4,5-dimethylthiazol-2-yl)-2,5-diphenyltetrazoline bromide) with an initial concentration of 5 mg/ml of H2 O were added to each microwave. The plate was incubated for 5 hours in a CO2 incubating cabinet at 37° C. The medium was then sucked off and 100 μl of i-propanol/well were added. After shaking for 30 minutes with 100 μl of H2 O, the extinction was measured at 540 nm with a Titertek Multiskan MCC/340 (Flow).

[11] = Table 1a, glycoconjugates of batracyline
[12] = Table 2a, * = cleavage product is N-[D-alanyl]-batracyline

In the case of `COc1cc([C@@H]2c3cc4c(cc3[C@@H](O[C@@H]3O[C@@H]5CO[C@@H](C)O[C@H]5[C@H](O)[C@H]3O)[C@H]3COC(=O)[C@H]23)OCO4)cc(OC)c1O` [Etoposide, reference compound], the “% survivors Day 0” value ([1]; 5 mg/kg) is reported as 100%, the “% survivors Day 20” value ([1]; 5 mg/kg) is reported as 90% and the “% survivors Day 25” value ([1]; 5 mg/kg) is reported as 80%. For the same compound, the “% survivors Day 30” value ([1]; 5 mg/kg) was 80% and the “% survivors Day 35” value ([1]; 5 mg/kg) was 70%.

For `CC(NC(=O)C(N)CCCCNC(=S)Nc1ccc(OC2OC(CO)C(O)C(OCC(=O)[O-])C2O)cc1)C(=O)Nc1ccc2c(c1)CN1C(=O)c3ccccc3C1=N2.[Na+]` [Example 3.33, N-{N^ε -[O-(3-O-Carboxymethyl-β-D-galactopyranosyl)-4-hydroxy-phenylamino-thiocarbonyl]-lysyl-D-alanyl}-batracyline, sodium salt], the IC50 [2, 11] was 70 µM, the IC50 [3, 11] was 90 µM and the acute toxicity detected [4] was “no acute toxicity”. For the same compound, the “individual dose of the substances which can be tolerated” value [4] was “more than 200 mg of substance per kg of mouse” and the “Individual dose tolerated in mg/kg of mouse, i.v.” value (“Individual dose tolerated … i.v.” for short) [4] was > 400 mg/kg of mouse.

For `CC(NC(=O)C(CCCCNC(=S)Nc1ccc(OC2OC(C)C(O)C(OCC(=O)[O-])C2O)cc1)NC(=S)Nc1ccc(OC2OC(C)C(O)C(OCC(=O)[O-])C2O)cc1)C(=O)Nc1ccc2nc3n(c(=O)c2c1)Cc1ccccc1-3.[Na+].[Na+]` [Example 6.12, N-{N^α,N^ε -Bis-[O-(3-O-carboxymethyl-β-L-fucosyl)-4-hydroxy-phenylamino-thiocarbonyl]-lysyl-D-alanyl}-batracyline, di-sodium salt], the “% cleavage in SW-480 1 hour” value [5] was 0%, the “% cleavage in SW-480 24 hours” value [5] was 0% and the IC50 [2, 11] was 50 µM. For the same compound, the IC50 [3, 11] was 35 µM, the acute toxicity detected [4] was “no acute toxicity” and the “individual dose of the substances which can be tolerated” value [4] was “more than 200 mg of substance per kg of mouse”. For the same compound, the “Individual dose tolerated … i.v.” value [4] was > 400 mg/kg of mouse, the “% cleavage in hepatoma 1 hour” value [6] was 0% and the “% cleavage in hepatoma 24 hours” value [6] was 0%.

For `CC(NC(=O)C(CCCCNC(=S)Nc1ccc(OC2OC(CO)C(O)C(OCC(=O)[O-])C2O)cc1)NC(=S)Nc1ccc(OC2OC(CO)C(O)C(OCC(=O)[O-])C2O)cc1)C(=O)Nc1ccc2nc3n(c(=O)c2c1)Cc1ccccc1-3.[Na+].[Na+]` [Example 6.81, N-{N^α,N^ε -Bis-[O-(3-O-carboxymethyl-β-D-galactopyranosyl)-4hydroxy-phenylamino-thiocarbonyl]-lysyl-D-alanyl}-batracyline, di-sodium salt], the IC50 [2, 11] was 30 µM, the IC50 [3, 11] was 30 µM and the acute toxicity detected [4] was “no acute toxicity”. The “individual dose of the substances which can be tolerated” value [4] was “more than 200 mg of substance per kg of mouse” and the “Individual dose tolerated … i.v.” value [4] was > 400 mg/kg of mouse.

In the case of `CC(NC(=O)C(CO)NC(=S)Nc1ccc(OC2OC(C)C(O)C(O)C2O)cc1)C(=O)Nc1ccc2c(c1)Cn1c-2nc2ccccc2c1=O` [Example 7.3, N-{N-[O-(β-L-Fucosyl)-4-hydroxy-phenylamino-thiocarbonyl]-seryl-D-alanyl]-batracyline], the “% cleavage in hepatoma 1 hour” value [7] is reported as 0%, the “% cleavage in hepatoma 24 hours” value [7] is reported as 0% and the IC50 [3, 11] is reported as 50 µM. The “% cleavage in SW-480 1 hour” value [8] was 0%, the “% cleavage in SW-480 24 hours” value [8] was 0% and the “% cleavage in human blood 1 hour” value [9, 12] was 0%. The “% cleavage in human blood 24 hours” value [9, 12] was 0%.

For `CO[C@H]1[C@H](O)[C@@H](Oc2ccc(Nc3nc(NCCO)nc(NCCCC[C@H](N)C(=O)N[C@H](C)C(=O)Nc4ccc5c(=O)n6c(nc5c4)-c4ccccc4C6)n3)cc2)O[C@@H](C)[C@H]1O.O=C(O)C(F)(F)F` [Example 8.2, N-{N^ε -[4-Hydroxyethylamino-2-[O-(3-O-methyl-β-L-fucosyl)-4-hydroxy-phenylamino]-triazin-6-yl]-lysyl-D-alanyl}-batracyline, trifluoroacetate], the “individual dose of the substances which can be tolerated” value [4] was “more than 200 mg of substance per kg of mouse” and the “Individual dose tolerated in mg/kg of mouse, i.p.” value (“Individual dose tolerated … i.p.” for short) [4] was > 200 mg/kg of mouse.

With `CO[C@H]1[C@H](O)[C@@H](Oc2ccc(NC(=S)NCCCC[C@H](NC(=S)Nc3ccc(O[C@H]4O[C@@H](C)[C@@H](O)[C@@H](OC)[C@@H]4O)cc3)C(=O)NC3C=CCC4CN(c5c(F)cc6c(=O)c(C(=O)O)cn(C7CC7)c6c5Cl)CC43)cc2)O[C@@H](C)[C@H]1O` (stereo partly drawn) [Example 11.6, N-{N^α,N^ε -Bis-[O-(3-O-methyl-β-L-fucosyl)-4-hydroxy-phenylamino-thiocarbonyl]-lysyl}-quinolone-a] the “% cleavage in hepatoma 1 hour” value [7] was 0%, the “% cleavage in hepatoma 24 hours” value [7] was 12% and the IC50 ([2]; Table 1b) was 9 µM. The IC50 ([3]; Table 1b) was 8 µM, the IC50 [10] was 5 µM and the “% cleavage in SW-480 1 hour” value [8] was 0%. For the same compound, the “% cleavage in SW-480 24 hours” value [8] was 8%, the “% cleavage in human blood 1 hour” value ([9]; Table 2b) was 0% and the “% cleavage in human blood 24 hours” value ([9]; Table 2b) was 11%.

With `CO[C@H]1[C@H](O)[C@@H](Oc2ccc(NC(=S)NCCCC[C@@H](NC(=S)Nc3ccc(O[C@H]4O[C@@H](C)[C@@H](O)[C@@H](OC)[C@@H]4O)cc3)C(=O)NC3C=CCC4CN(c5c(F)cc6c(=O)c(C(=O)[O-])cn(C7CC7)c6c5Cl)CC43)cc2)O[C@@H](C)[C@H]1O.[Na+]` (stereo partly drawn) [Example 11.12, N-{N^α,N^ε -Bis-[O-(3-O-methyl-β-L-fucosyl)-4-hydroxy-phenylamino-thiocarbonyl]-D-lysyl}-quinolone-a, sodium salt] the “% survivors Day 0” value ([1]; 1 mg/kg) was 100%, the “% survivors Day 20” value ([1]; 1 mg/kg) was 90% and the “% survivors Day 25” value ([1]; 1 mg/kg) was 60%. The “% survivors Day 30” value ([1]; 1 mg/kg) was 30%, the “% survivors Day 35” value ([1]; 1 mg/kg) was 30% and the “% survivors Day 0” value ([1]; 100 mg/kg) was 100%. The “% survivors Day 20” value ([1]; 100 mg/kg) was 100%, the “% survivors Day 25” value ([1]; 100 mg/kg) was 100% and the “% survivors Day 30” value ([1]; 100 mg/kg) was 90%. For the same compound, the “% survivors Day 35” value ([1]; 100 mg/kg) was 90%.

`CC[C@@]1(OC(=O)[C@H](C)NC(=O)[C@H](CCCCN)NC(=S)Nc2ccc(O[C@H]3O[C@@H](C)[C@@H](O)[C@@H](OC)[C@@H]3O)cc2)C(=O)OCc2c1cc1n(c2=O)Cc2cc3ccccc3nc2-1` [Example 18.14, 20-O-{N^α -[O-(3-O-Methyl-β-L-fucopyranosyl)-4-hydroxy-phenylamino-thiocarbonyl]-lysyl-alanyl}-camptothecin, hydrochloride] gave an IC50 ([2]; Table 1b) of 0.01 µM, an IC50 ([3]; Table 1b) of 0.015 µM and an IC50 [10] of 0.08 µM.

For “N-[Lysyl-D-alanyl]-batracyline, di-trifluoroacetate [Example 2.13]”, the “Individual dose tolerated … i.p.” value [4] was 50 mg/kg of mouse and the “Individual dose tolerated … i.v.” value [4] was 25 mg/kg of mouse.

With “N-{N^α -[O-(3-O-Carboxymethyl-β-L-fucosyl)-4-hydroxyphenylaminothiocarbonyl] -N^α -[acetyl]-lysyl-D-alanyl batracyline [Example 5.9]” the “% cleavage in hepatoma 1 hour” value [7] was 0%, the “% cleavage in hepatoma 24 hours” value [7] was 0% and the IC50 [2, 11] was 70 µM. For the same compound, the IC50 [3, 11] was 70 µM, the “% cleavage in SW-480 1 hour” value [8] was 0% and the “% cleavage in SW-480 24 hours” value [8] was 0%. For the same compound, the “% cleavage in human blood 1 hour” value [9, 12] was 0% and the “% cleavage in human blood 24 hours” value [9, 12] was 0%.

In the case of “N-{N^α -[O-(4-O-Methyl-β-L-fucosyl)-4-hydroxy-phenylamino-thiocarbonyl]-lysy l-D-alanyl}-batracyline [Example 4.4]”, the “% cleavage in hepatoma 1 hour” value [7] is reported as 0%, the “% cleavage in hepatoma 24 hours” value [7] is reported as 0% and the IC50 [2, 11] is reported as 25 µM. The IC50 [3, 11] was 30 µM, the “% cleavage in SW-480 1 hour” value [8] was 0% and the “% cleavage in SW-480 24 hours” value [8] was 0%. The “% cleavage in human blood 1 hour” value [9, 12] was 0% and the “% cleavage in human blood 24 hours” value [9, 12] was 0%.

In the case of “N-{N^α,N^ε -Bis-[O-(β-L-fucosyl)-4-hydroxy-phenylamino-thiocarbonyl]-lysyl-D-ala nyl}-batracyline [Example 6.14]”, the acute toxicity detected [4] is reported as “no acute toxicity”, the “individual dose of the substances which can be tolerated” value [4] is reported as “more than 200 mg of substance per kg of mouse” and the “Individual dose tolerated … i.p.” value [4] is reported as > 400 mg/kg of mouse.

With “N-{N^ε -[O-(3,4-Di-O-methyl-β-D-galactopyranosyl)-4-hydroxy-phenylamino-thio carbonyl]-lysyl-D-alanyl}-batracyline, trifluoroacetate [Example 3.16]” the “individual dose of the substances which can be tolerated” value [4] was “more than 200 mg of substance per kg of mouse” and the “Individual dose tolerated … i.p.” value [4] was > 200 mg/kg of mouse.
